Measurements from patent publication US10105357B2, “Indication of antibiotic drugs for preparation of cancer inhibition pharmaceutical composition” (LAUNX BIOMEDICAL CO., LTD., priority 2014, dated 2018).
Read-outs that look alike come from different tables or passages of the source.

What was measured:
Format in all cases: cell-based, human
[1] = test system: C-33A (Cervical carcinoma); assay: Cell viability analysis, cervical cancer C-33A; details: Homo sapiens, 72 h; C-33A; repeated experiment; read-out: The results of antibiotic drug inhibiting cancer cell lines (cell viability analysis), C-33A
T24 = assay: Cell viability analysis, bladder cancer T24; details: Homo sapiens, T-24, 72 h; T24; repeated experiment; read-out: The results of antibiotic drug inhibiting cancer cell lines (cell viability analysis), T24
AsPC-1 = assay: Cell viability analysis, pancreatic cancer AsPC-1; details: Homo sapiens, ASPC1, 72 h; AsPC-1; repeated experiment; read-out: The results of antibiotic drug inhibiting cancer cell lines (cell viability analysis), AsPC-1
[2] = test system: HepG2 (Hepatocellular Carcinoma); assay: Cell viability analysis, hepatic cancer HepG2; details: Homo sapiens, HepG2, 72 h
[3] = test system: HL-60 (Acute Promyelocytic Leukemia); assay: Cell viability analysis, leukemia HL-60; details: Homo sapiens, HL-60, 72 h, drug 10 μM, 72 hours, WST-1, OD450 nm; read-out: cell viability (survival rate), HL-60
[4] = test system: HI650 (Lung Adenocarcinoma); assay: Cell viability analysis, lung cancer HI650; details: Homo sapiens, NCI-H1650, 72 h
[5] = test system: MKN-45 (Gastric Adenocarcinoma); assay: Cell viability analysis, gastric cancer MKN-45; details: Homo sapiens, MKN-45, 72 h
[6] = test system: PC3 (p53−) (Prostate Adenocarcinoma); assay: Cell viability analysis, prostate cancer PC3; details: Homo sapiens, 72 h
cancer cell lines = assay: Cell viability analysis (WST-1) on cancer cell lines; details: drug 10 μM, 72 hours, WST-1; Table 3
[7] = test system: MCF7 (Mammary Gland, Adenocarcinoma); assay: Cell viability analysis, breast cancer MCF7; details: Homo sapiens, MCF7, 72 h
[8] = test system: Hep3B (hepatocellular carcinoma); assay: Cell viability analysis, hepatic cancer Hep3B; details: Homo sapiens, 72 h; Hep3B; repeated experiment; read-out: The results of antibiotic drug inhibiting cancer cell lines (cell viability analysis), Hep3B
[9] = test system: HeLa (Cervix Adenocarcinoma); assay: Cell viability analysis, cervical cancer HeLa; details: Homo sapiens, HeLa, 72 h, HeLa
[10] = test system: AGS (Gastric Adenocarcinoma); assay: Cell viability analysis, gastric cancer AGS; details: Homo sapiens, 72 h
[11] = test system: MDA-MB-231 (Mammary Gland, Adenocarcinoma); assay: Cell viability analysis, breast cancer MDA-MB-231; details: Homo sapiens, MDA-MB-231, 72 h; MDA-MB231; repeated experiment; read-out: The results of antibiotic drug inhibiting cancer cell lines (cell viability analysis), MDA-MB231
[12] = test system: BCC (basal cell carcinoma); assay: Cell viability analysis, skin cancer BCC; details: Homo sapiens, 72 h; BCC; repeated experiment; read-out: The results of antibiotic drug inhibiting cancer cell lines (cell viability analysis), BCC
[13] = test system: TSGH-8301 (Urinary Bladder Carcinoma); assay: Cell viability analysis, bladder cancer TSGH-8301; details: Homo sapiens, 72 h
[14] = test system: LoVo (Colorectal Adenocarcinoma); assay: Cell viability analysis, colon cancer LoVo; details: Homo sapiens, LoVo, 72 h
[15] = test system: A549 (Lung Adenocarcinoma); assay: Cell viability analysis, lung cancer A549; details: Homo sapiens, A549, 72 h
U-2OS = assay: Cell viability analysis, osteosarcoma U-2OS; details: Homo sapiens, 72 h; U2OS; repeated experiment; read-out: The results of antibiotic drug inhibiting cancer cell lines (cell viability analysis), U2OS
TOV-21G = assay: Cell viability analysis, ovarian cancer TOV-21G; details: Homo sapiens, TOV21G, 72 h; TOV-21G; repeated experiment; read-out: The results of antibiotic drug inhibiting cancer cell lines (cell viability analysis), TOV-21G
NIH: OVCAR-3 = assay: Cell viability analysis, ovarian cancer NIH: OVCAR-3; details: Homo sapiens, 72 h; NIH-OVCAR-3; repeated experiment; read-out: The results of antibiotic drug inhibiting cancer cell lines (cell viability analysis), NIH-OVCAR-3
[16] = test system: SAS (Tongue squamous cell carcinoma); assay: Cell viability analysis, tongue cancer SAS; details: Homo sapiens, 72 h; SAS; repeated experiment; read-out: The results of antibiotic drug inhibiting cancer cell lines (cell viability analysis), SAS
BxPC-3 = assay: Cell viability analysis, pancreatic cancer BxPC-3; details: Homo sapiens, 72 h; BxPC-3; repeated experiment; read-out: The results of antibiotic drug inhibiting cancer cell lines (cell viability analysis), BxPC-3
[17] = test system: A375 (Amelanotic Melanoma); assay: Cell viability analysis, skin cancer A375; details: Homo sapiens, A-375, 72 h

For NC(=O)N/N=C/c1ccc([N+](=O)[O-])o1 [Nitrofurazone (Nitrofural), Nitrofurazone], the viability at 10 µM [1] was 83.2%, the viability at 10 µM (T24) was 87.4% and the viability at 10 µM (AsPC-1) was 76.7%. For the same compound, the viability at 10 µM ([2]; HepG2, repeated experiment, read-out: The results of antibiotic drug inhibiting cancer cell lines (cell viability analysis), HepG2) was 95.4%, the viability at 10 µM ([2]; drug 10 μM, 72 hours, WST-1, OD450 nm, read-out: cell viability (survival rate), HepG2) was 82.4% and the viability at 10 µM [3] was 85.6%. The viability at 10 µM ([4]; H1650, repeated experiment, read-out: The results of antibiotic drug inhibiting cancer cell lines (cell viability analysis), H1650) was 67.3%, the viability at 10 µM ([4]; drug 10 μM, 72 hours, WST-1, OD450 nm, read-out: cell viability (survival rate), H1650) was 61.1% and the viability at 10 µM ([5]; MKN-45, repeated experiment, read-out: The results of antibiotic drug inhibiting cancer cell lines (cell viability analysis), MKN-45) was 86.8%. For the same compound, the viability at 10 µM ([5]; drug 10 μM, 72 hours, WST-1, OD450 nm, read-out: cell viability (survival rate), MKN-45) was 42%, the viability at 10 µM ([6]; PC-3, repeated experiment, read-out: The results of antibiotic drug inhibiting cancer cell lines (cell viability analysis), PC-3) was 98.6% and the viability at 10 µM ([6]; drug 10 μM, 72 hours, WST-1, OD450 nm, read-out: cell viability (survival rate), PC3) was 53.8%. For the same compound, the “inhibition effect on different cancer cell lines” value (cancer cell lines) was “significant inhibition effect”, the viability at 10 µM ([7]; MCF-7, repeated experiment, read-out: The results of antibiotic drug inhibiting cancer cell lines (cell viability analysis), MCF-7) was 107% and the viability at 10 µM ([7]; drug 10 μM, 72 hours, WST-1, OD450 nm, read-out: cell viability (survival rate), MCF7) was 35.3%. For the same compound, the viability at 10 µM [8] was 95.3%, the viability at 10 µM ([9]; repeated experiment, read-out: The results of antibiotic drug inhibiting cancer cell lines (cell viability analysis), HeLa) was 51.2% and the viability at 10 µM ([9]; drug 10 μM, 72 hours, WST-1, OD450 nm, read-out: cell viability (survival rate), HeLa) was 55.4%. The viability at 10 µM ([10]; AGS, repeated experiment, read-out: The results of antibiotic drug inhibiting cancer cell lines (cell viability analysis), AGS) was 88.2%, the viability at 10 µM ([10]; drug 10 μM, 72 hours, WST-1, OD450 nm, read-out: cell viability (survival rate), AGS) was 28% and the viability at 10 µM [11] was 84%. The viability at 10 µM [12] was 93%, the viability at 10 µM ([13]; TSGH-8301, repeated experiment, read-out: The results of antibiotic drug inhibiting cancer cell lines (cell viability analysis), TSGH-8301) was 83.9% and the viability at 10 µM ([13]; drug 10 μM, 72 hours, WST-1, OD450 nm, read-out: cell viability (survival rate), TSGH) was 32.5%. For the same compound, the viability at 10 µM ([14]; read-out: The results of antibiotic drug inhibiting cancer cell lines (cell viability analysis), LoVo, repeated experiment) was 84.8%, the viability at 10 µM ([14]; read-out: cell viability (survival rate), LoVo, drug 10 μM, 72 hours, WST-1, OD450 nm) was 64.9% and the viability at 10 µM ([15]; A549, repeated experiment, read-out: The results of antibiotic drug inhibiting cancer cell lines (cell viability analysis), A549) was 114%. The viability at 10 µM ([15]; drug 10 μM, 72 hours, WST-1, OD450 nm, read-out: cell viability (survival rate), A549) was 44.3%, the viability at 10 µM (U-2OS) was 92.4% and the viability at 10 µM (TOV-21G) was 95.7%. The viability at 10 µM (NIH: OVCAR-3) was 99.5%, the viability at 10 µM [16] was 92.3% and the viability at 10 µM (BxPC-3) was 71.6%. For the same compound, the viability at 10 µM ([17]; A375, repeated experiment, read-out: The results of antibiotic drug inhibiting cancer cell lines (cell viability analysis), A375) was 94.7% and the viability at 10 µM ([17]; drug 10 μM, 72 hours, WST-1, OD450 nm, read-out: cell viability (survival rate), A375) was 54.9%.
